Holding throughout (assay): growth of human tumour cells (NCI), 48 h
The test system of assay [1] is LXFL 529 NSCLC.
Assay [2] deals with KM20L2 colon.
For assay [3], the system named is HOP-18 NSCLC.
For assay [4], the system named is M19-MEL melanoma.
The test system of assay [5] is XF 498 CNS.
Assay [6] concerns DLD-1 colon.
Assay [7] concerns RXF-631 renal.
The test system of assay [8] is MDA-N.

SMILES strings stand for the structures.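 Step 1: Grow cells in 96-well plates. Step 2: Expose to compound for 48 hours at 5 concentrations. Step 3: Interpolate endpoints linearly; if unreached, use highest concentration. GI50: concentration for 50% inhibition of growth. At the TGI there is no net growth.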

For 41 molecules, TGI and GI50 results are on record in PubChem BioAssay (NCI).

As to `O=C1CCC(=O)C12CCc1cccc(O)c12`, the TGI in assay [1], in assay [2], in assay [3], in assay [4], in assay [5] and in assay [6] was over 100 µM each time.
Regarding `CC1=N/C(=C\c2ccc([N+](=O)[O-])cc2)C(=O)O1`, the TGI in assay [1], in assay [2], in assay [3], in assay [4], in assay [6] and in assay [7] was over 100 µM in each case.
With `COc1ccc(/C=C/C(C(=O)O)C(=O)O)cc1`, the TGI in assay [1], in assay [2], in assay [4], in assay [5] and in assay [6] was over 100 µM each time.
In assay [8], `COc1ccc(Nc2c[nH]c(=O)[nH]c2=O)cc1` displayed a TGI of over 100 µM.
On to `CC(C)(C)C(=O)OCC(COC(=O)C(C)(C)C)[N+](=O)[O-]`, for which the TGI in assay [1], in assay [4], in assay [5] and in assay [6] was over 100 µM in each case.
In the case of `N#CC(=S)Nc1ccc(F)cc1`, the TGI in assay [8] was over 100 µM.
In the case of `O=c1c2cccnc2ncn1CCCN1CCOCC1`, the TGI in assay [1], in assay [2], in assay [4], in assay [5] and in assay [6] was over 100 µM each time.
As for `CCOC(=O)C1(C(=O)OCC)CC=C(C)CC12C(=O)Nc1ccccc12` (stereo unspecified), the TGI in assay [1], in assay [2], in assay [3], in assay [4], in assay [5] and in assay [6] was over 100 µM each time.
For `CC(C)CC(=O)CC(O)C(Cl)(Cl)Cl` (stereo unspecified), the TGI in assay [8] is over 100 µM.
The same measure, in the same setting: the value for `CS(=O)(=O)CS(=O)CS(=O)CS(=O)CC(NC(=O)CCC(N)C(=O)O)C(=O)O` (stereo unspecified) was over 100 µM.
Regarding `CN(C)CCNC(=O)c1cccc2c1nc(-c1ccccn1)c1ccccc12`, the TGI came to 96.8 µM in assay [3], 32 µM in assay [4] and 31 µM in assay [6].
Molecule `CCc1nc(N)nc(N)c1-c1ccc(Cl)c(N=NN(C)C)c1` had a TGI in assay [8] of over 100 µM.
With `Oc1ccc(SCc2ccc(NCc3ccccc3)cc2)cc1`, in assay [8], the TGI was 57.4 µM.
Turning to `N#Cc1nc(Nc2ccc([N+](=O)[O-])cc2)sc1N`, the TGI in assay [1], in assay [2], in assay [3], in assay [4], in assay [5] and in assay [6] was over 100 µM throughout. The molecule further returned a TGI in assay [7] of over 75 µM.
Take `Cc1ccc([Se][Se]c2ccc(C)cc2)cc1`: the TGI in assay [1] was 31.7 µM; in assay [2], over 100 µM; in assay [3] it was 33.5 µM; in assay [4] it was 40.6 µM; in assay [5] it was 40.8 µM; in assay [6] it was over 100 µM. The molecule also registered a TGI in assay [7] of 77.9 µM.
Regarding `COC(=O)C(=O)C(C#N)c1ccc(Cl)c(Cl)c1` (stereo unspecified), the TGI in assay [1], in assay [2], in assay [4], in assay [5], in assay [6] and in assay [7] was over 100 µM in each case.
For the molecule `COP1(=S)OCC2CCC[C@@H]2O1` (stereo partly specified), the TGI in assay [8] is over 100 µM.
Regarding `CC1=C(c2cc(C(=O)Nc3cccc(C(F)(F)F)c3)nc(NC#N)n2)Sc2ccccc2N1`, the TGI in assay [1], in assay [2], in assay [3], in assay [4], in assay [6] and in assay [7] was over 100 µM in each case.
Molecule `CCN1CCCCC(=N\O)/C(=N/O)CCCC1` displayed a TGI in assay [8] of over 100 µM.
Turning to `CCCCCCCCCC(=O)N[C@H]1CCc2cc(OC)c(OC)c(OC)c2-c2ccc(SC)c(=O)cc21`, the TGI in assay [1] was determined as 96.7 µM; in assay [2] it was 0.0387 µM; in assay [4] it was 67.4 µM; in assay [5], 0.0693 µM; in assay [6], 57.7 µM. In addition, the GI50 in assay [6] was 11.2 µM.
Consider `O=C(O/N=C1/CCCC/C1=C\c1ccccc1)c1ccc(Cl)cc1`, for which the TGI in assay [1] was over 100 µM; in assay [2], over 100 µM; in assay [3], over 100 µM; in assay [4], over 100 µM; in assay [5], 48.1 µM; in assay [6] it was over 100 µM.
As for `O=C1c2ccccc2C2(O)Oc3cccc(O)c3C12O` (stereo unspecified), the TGI in assay [1], in assay [2], in assay [3], in assay [4], in assay [6] and in assay [7] was over 100 µM throughout.
Consider `CC(C)c1ccc(O)c(=O)cc1`, for which the TGI in assay [1] was over 100 µM; in assay [2], over 100 µM; in assay [3] it was over 56.1 µM; in assay [4] it was over 70.9 µM; in assay [5] it was over 100 µM; in assay [6] it was over 100 µM. Further, the GI50 in assay [8] is 22.7 µM.
Consider `COc1ccc(CCC2NCCc3cc(OC)c(OC)cc32)cc1` (stereo unspecified), for which the TGI in assay [1], in assay [2], in assay [3], in assay [5] and in assay [6] was over 100 µM throughout.
Take `COc1cccc2c1C(=O)c1c(O)c3c(c(O)c1C2=O)C[C@@](O)(/C(C)=N\O)C[C@@H]3OC1CC(N)C(O)C(C)O1` (stereo partly specified): the TGI in assay [1] stood at 7.11 µM; in assay [2] it was 30.9 µM; in assay [3], 7.26 µM; in assay [4] it was 3.79 µM; in assay [5] it was 0.951 µM; in assay [8], 5.83 µM. Also, the TGI in assay [6] amounted to 18.2 µM; in assay [7], 45.5 µM.
`O=C1C=C(Nc2nc(C(=O)O)cc(=O)[nH]2)c2ccccc2C1=O` had a TGI in assay [8] of over 100 µM.
In the case of `COc1ccc(S(=O)(=O)N/N=C(\C)CN2C(=O)c3ccccc3C2=O)cc1`, the TGI in assay [1], in assay [2], in assay [3], in assay [4], in assay [6] and in assay [7] was over 100 µM in each case.
In the case of `O=C1CCC2CCOc3ccc(O)c1c32` (stereo unspecified), the TGI in assay [2], in assay [4], in assay [6] and in assay [7] was over 100 µM each time.
For the molecule `Cc1ccc(N(C(=O)CC(=O)N2N=C(c3ccccc3)C(N=Nc3ccc([N+](=O)[O-])cc3)C2=O)C(=O)c2ccc(Cl)cc2)cc1` (stereo unspecified), the TGI was over 52.9 µM in assay [1]; over 100 µM in assay [2]; over 85.6 µM in assay [3]; over 53.9 µM in assay [4]; 52.2 µM in assay [5]; over 55.9 µM in assay [6].
In the case of `O=[N+]([O-])c1ccc2c(c1)S(=O)c1ccccc1-2` (stereo unspecified), the TGI in assay [8] is over 100 µM.
As to `Cc1cccc(N2C(=O)C(=O)C(c3nc4ccccc4s3)C(=O)C2=O)c1C`, the TGI in assay [1], in assay [2], in assay [3], in assay [4], in assay [6] and in assay [7] was over 100 µM in each case.
Regarding `COC1(OC)c2ccccc2C2(O)c3ccccc3C(=O)C12` (stereo unspecified), the TGI in assay [1] is over 100 µM; in assay [2], over 100 µM; in assay [3], over 100 µM; in assay [4] it was over 100 µM; in assay [5], 58.8 µM.
Turning to `CC(C)(CCC(C)(C)c1ccccc1)c1ccccc1`, in assay [8], the TGI was found to be 56.8 µM.
Take `C1C[OH+]CC[OH+]CC[OH+]CC[OH+]CC[OH+]CC[OH+]1.[Cl-].[Ta+5]`: in assay [2], the GI50 was over 100 µM and the TGI is over 100 µM.
As for `Cc1nn(C)c(=O)c2nn(-c3ccccc3)c(C)c12`, the TGI in assay [1], in assay [2], in assay [3], in assay [4] and in assay [6] was over 100 µM each time.
In the case of `C=CCC(C)(C(=O)NCCC)C(=O)c1ccccc1O` (stereo unspecified), the TGI in assay [1], in assay [2], in assay [3], in assay [4] and in assay [6] was over 100 µM throughout.
`CC1=N/C(=C\c2cccc3ccccc23)C(=O)O1`: the TGI in assay [1], in assay [2], in assay [3], in assay [4], in assay [6] and in assay [7] was over 100 µM in each case.
On to `C=C1C(=O)O[C@H]2[C@H]1CC(=O)/C(C)=C\CC[C@@]1(C)O[C@@H]21`, for which, in assay [8], the GI50 is 3.58 µg/mL and the TGI amounted to 7.87 µg/mL.
Consider `O=C(/C=C/c1ccc(Cl)cc1)c1ccncc1`, for which the TGI in assay [1] is over 100 µM; in assay [2], over 100 µM; in assay [3], over 100 µM; in assay [4], 68.7 µM; in assay [6], over 100 µM; in assay [7] it was over 100 µM.
Consider `C=CCNC(=S)OCCCCCCCCCC`, for which the TGI was 28.5 µM in assay [1]; 33.2 µM in assay [2]; 51.8 µM in assay [3]; 32.5 µM in assay [4]; 29.7 µM in assay [5]; 30.7 µM in assay [6].
For the molecule `O=C(CC(=O)c1ccccc1NC1=Cc2ccccc2C(=O)C1=O)C(=O)NC1=C(Cl)C(=O)c2ccccc2C1=O`, the TGI in assay [1] was 8.6 µM; in assay [2], 30.5 µM; in assay [4], 0.931 µM; in assay [5], 4.66 µM; in assay [8], 3.15 µM; in assay [6] it was 11.7 µM. Also, the TGI in assay [7] was 31.9 µM.
